Reference: patent US20020137929A1, “1 - (3-heterocyclylphenyl) isothiourea, -isourea, -guanidine and -amidine herbicidal agents” (Intellectual Property Department, BASF Aktiengesellschaft, priority 1998, published 2002)

Assays:
ABUTH (Velvetleaf) = assay: Postemergence herbicidal evaluation; assay type: in vivo, Abutilon theophrasti; conditions: for Herbicidal rating ABUTH: postemergence
How it was run: (§1)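 Scores (0–9) reflect plant stand, vigor, malformation, size, chlorosis and general appearance relative to control, read 4 to 5 weeks after treatment and averaged where tests were repeated. Application: about 0.0156–0.500 kg/ha sprayed at 40 psi onto two-week seedlings.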

[1] = test system: CHEAL (Lambsquarters, Common); assay: Postemergence herbicidal evaluation; assay type: in vivo, Chenopodium album; conditions: for Herbicidal rating CHEAL: postemergence
How it was run: as §1

SETVI (Foxtail, Green) [2] = assay: Postemergence herbicidal evaluation; assay type: in vivo, Setaria viridis; conditions: for Herbicidal rating SETVI: postemergence
How it was run: as §1

[3] = test system: GLXMAW (Soybean, Williams); assay: Postemergence herbicidal evaluation; assay type: in vivo, Glycine max, (L.) Merr. cv Williams; conditions: for Herbicidal rating GLXMAW: postemergence
How it was run: as §1

ORYSAT (Rice, Tebonnet) = assay: Postemergence herbicidal evaluation; assay type: in vivo, Oryza sativa, (L.) Tebonnet; conditions: for Herbicidal rating ORYSAT: postemergence
How it was run: as §1

[4] = test system: TRZAWR (Wheat, Winter, cv Riband); assay: Postemergence herbicidal evaluation; assay type: in vivo, Triticum aestivum; conditions: for Herbicidal rating TRZAWR: postemergence
How it was run: as §1

ZEAMX (Corn, Field) = assay: Postemergence herbicidal evaluation; assay type: in vivo, Zea mays; conditions: for Herbicidal rating ZEAMX: postemergence
How it was run: as §1

AMBEL (Ragweed, Common) = assay: Preemergence herbicidal evaluation; assay type: in vivo, Ambrosia artemisifolia; conditions: rated 4-5 weeks after treatment
How it was run: (§2)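 Scores (0–9) reflect visual comparison with control plants for stand, vigor, malformation, size and chlorosis. Compound was applied to the soil after sowing, before emergence, as an aqueous acetone spray (about 0.0156–0.500 kg/ha), and cups were kept in a greenhouse for 4–5 weeks.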

GALAP (Galium) = assay: Preemergence herbicidal evaluation; assay type: in vivo, Galium aparine; conditions: rated 4-5 weeks after treatment
How it was run: as §2

SETVI (Foxtail, Green) [5] = assay: Preemergence herbicidal evaluation; assay type: in vivo, Setaria viridis; conditions: rated 4-5 weeks after treatment
How it was run: as §2

CYPIR (Rice Flatsedge) = assay: Preemergence weed control under flooded paddy conditions; assay type: in vivo, Cyperus iria; conditions: rated 3-4 weeks after treatment
How it was run: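 Seeds or propagules sown in top 0.5 cm of silt loam soil, flooded 1.5 to 3 cm above surface throughout. Compound in 50/50 v/v aqueous/acetone pipetted into flood water at about 0.0313 to 0.500 kg/ha. Visual 0-9 rating versus control after three to four weeks in greenhouse.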

[6] = rate 0.0156 kg/ha, rating scale 0-9
[7] = rate 0.0313 kg/ha, rating scale 0-9
[8] = rate 0.0625 kg/ha, rating scale 0-9
[9] = rate 0.1250 kg/ha, rating scale 0-9
[10] = rate 0.2500 kg/ha, rating scale 0-9

COCCCN1C(=O)CSC1=Nc1cc(-n2c(=O)cc(C(F)(F)F)n(C)c2=O)c(F)cc1Cl [Compound 172, 3-{4-Chloro-2-fluoro-5-{[3-(3-methoxypropyl)-4-oxo-2-thiazolidinylidene]amino}phenyl}-1-methyl-6-(trifluoromethyl)-2,4(1H, 3H)-pyrimidinedione]
Postemergence herbicidal rating ABUTH (ABUTH (Velvetleaf); Rate 0.0313 kg/ha): 9.0
Postemergence herbicidal rating ABUTH (ABUTH (Velvetleaf); Rate 0.0625 kg/ha): 9.0
Postemergence herbicidal rating ABUTH (ABUTH (Velvetleaf); rate 0.0156 kg/ha): 9.0
Postemergence herbicidal rating CHEAL ([1]; Rate 0.0313 kg/ha): 9.0
Postemergence herbicidal rating CHEAL ([1]; Rate 0.0625 kg/ha): 9.0
Postemergence herbicidal rating CHEAL ([1]; rate 0.0156 kg/ha): 6.0
Postemergence herbicidal rating SETVI (SETVI (Foxtail, Green) [2]; Rate 0.0313 kg/ha): 3.0
Postemergence herbicidal rating SETVI (SETVI (Foxtail, Green) [2]; Rate 0.0625 kg/ha): 2.0
Postemergence herbicidal rating SETVI (SETVI (Foxtail, Green) [2]; rate 0.0156 kg/ha): 2.0
Postemergence herbicidal rating GLXMAW ([3]; Rate 0.0313 kg/ha): 6.5
Postemergence herbicidal rating GLXMAW ([3]; Rate 0.0625 kg/ha): 7.0
Postemergence herbicidal rating GLXMAW ([3]; rate 0.0156 kg/ha): 6.0
Postemergence herbicidal rating ORYSAT (ORYSAT (Rice, Tebonnet); Rate 0.0313 kg/ha): 3.5
Postemergence herbicidal rating ORYSAT (ORYSAT (Rice, Tebonnet); Rate 0.0625 kg/ha): 4.0
Postemergence herbicidal rating ORYSAT (ORYSAT (Rice, Tebonnet); rate 0.0156 kg/ha): 3.5
Postemergence herbicidal rating TRZAWR ([4]; Rate 0.0313 kg/ha): 4.5
Postemergence herbicidal rating TRZAWR ([4]; Rate 0.0625 kg/ha): 4.0
Postemergence herbicidal rating TRZAWR ([4]; rate 0.0156 kg/ha): 4.0
Postemergence herbicidal rating ZEAMX (ZEAMX (Corn, Field); Rate 0.0313 kg/ha): 5.0
Postemergence herbicidal rating ZEAMX (ZEAMX (Corn, Field); Rate 0.0625 kg/ha): 5.0
Postemergence herbicidal rating ZEAMX (ZEAMX (Corn, Field); rate 0.0156 kg/ha): 5.0
Preemergence herbicidal rating AMBEL (AMBEL (Ragweed, Common); 0.0156 kg/ha): 5.0
Preemergence herbicidal rating AMBEL (AMBEL (Ragweed, Common); 0.0313 kg/ha): 7.0
Preemergence herbicidal rating AMBEL (AMBEL (Ragweed, Common); 0.0625 kg/ha): 9.0
Preemergence herbicidal rating AMBEL (AMBEL (Ragweed, Common); 0.1250 kg/ha): 9.0
Preemergence herbicidal rating AMBEL (AMBEL (Ragweed, Common); 0.2500 kg/ha): 9.0
Preemergence herbicidal rating GALAP (GALAP (Galium); 0.0156 kg/ha): 0.0
Preemergence herbicidal rating GALAP (GALAP (Galium); 0.0313 kg/ha): 0.0
Preemergence herbicidal rating GALAP (GALAP (Galium); 0.0625 kg/ha): 5.0
Preemergence herbicidal rating GALAP (GALAP (Galium); 0.1250 kg/ha): 7.0
Preemergence herbicidal rating GALAP (GALAP (Galium); 0.2500 kg/ha): 9.0
Preemergence herbicidal rating SETVI (SETVI (Foxtail, Green) [5]; 0.0156 kg/ha): 5.0
Preemergence herbicidal rating SETVI (SETVI (Foxtail, Green) [5]; 0.0313 kg/ha): 7.0
Preemergence herbicidal rating SETVI (SETVI (Foxtail, Green) [5]; 0.0625 kg/ha): 9.0
Preemergence herbicidal rating SETVI (SETVI (Foxtail, Green) [5]; 0.1250 kg/ha): 9.0
Preemergence herbicidal rating SETVI (SETVI (Foxtail, Green) [5]; 0.2500 kg/ha): 9.0
herbicidal effect rating, CYPIR (CYPIR (Rice Flatsedge); 0.0313 kg/ha): 5.0
herbicidal effect rating, CYPIR (CYPIR (Rice Flatsedge); 0.0625 kg/ha): 7.0
herbicidal effect rating, CYPIR (CYPIR (Rice Flatsedge); 0.1250 kg/ha): 8.0
herbicidal effect rating, CYPIR (CYPIR (Rice Flatsedge); 0.2500 kg/ha): 9.0

Cn1c(C(F)(F)F)cc(=O)n(-c2cc(N=C3SCC(=O)N3Cc3ccc(C(F)(F)F)cc3)c(Cl)cc2F)c1=O [Compound 141, 3-{4-Chloro-2-fluoro-5-{{3-[p-(trifluoromethyl)benzyl]-4-oxo-2-thiazolidinylidene}-amino}phenyl}-1-methyl-6-(trifluoromethyl)-2,4 (1H, 3H)-pyrimidinedione]
Herbicidal rating ABUTH (ABUTH (Velvetleaf); rate 0.0156 kg/ha): 7.0
Herbicidal rating ABUTH (ABUTH (Velvetleaf); rate 0.0313 kg/ha): 7.0
Herbicidal rating ABUTH (ABUTH (Velvetleaf); rate 0.0625 kg/ha): 8.0
Herbicidal rating CHEAL ([1]; rate 0.0156 kg/ha): 3.0
Herbicidal rating CHEAL ([1]; rate 0.0313 kg/ha): 5.0
Herbicidal rating CHEAL ([1]; rate 0.0625 kg/ha): 9.0
Herbicidal rating SETVI (SETVI (Foxtail, Green) [2]; rate 0.0156 kg/ha): 0.0
Herbicidal rating SETVI (SETVI (Foxtail, Green) [2]; rate 0.0313 kg/ha): 0.0
Herbicidal rating SETVI (SETVI (Foxtail, Green) [2]; rate 0.0625 kg/ha): 0.0
Herbicidal rating GLXMAW ([3]; rate 0.0156 kg/ha): 4.0
Herbicidal rating GLXMAW ([3]; rate 0.0313 kg/ha): 4.0
Herbicidal rating GLXMAW ([3]; rate 0.0625 kg/ha): 4.5
Herbicidal rating ORYSAT (ORYSAT (Rice, Tebonnet); rate 0.0156 kg/ha): 0.5
Herbicidal rating ORYSAT (ORYSAT (Rice, Tebonnet); rate 0.0313 kg/ha): 1.5
Herbicidal rating ORYSAT (ORYSAT (Rice, Tebonnet); rate 0.0625 kg/ha): 2.0
Herbicidal rating TRZAWR ([4]; rate 0.0156 kg/ha): 3.0
Herbicidal rating TRZAWR ([4]; rate 0.0313 kg/ha): 3.5
Herbicidal rating TRZAWR ([4]; rate 0.0625 kg/ha): 4.5
Herbicidal rating ZEAMX (ZEAMX (Corn, Field); rate 0.0156 kg/ha): 4.0
Herbicidal rating ZEAMX (ZEAMX (Corn, Field); rate 0.0313 kg/ha): 4.5
Herbicidal rating ZEAMX (ZEAMX (Corn, Field); rate 0.0625 kg/ha): 5.0
Preemergence herbicidal rating AMBEL (AMBEL (Ragweed, Common); [6]): 0.0
Preemergence herbicidal rating AMBEL (AMBEL (Ragweed, Common); [7]): 0.0
Preemergence herbicidal rating AMBEL (AMBEL (Ragweed, Common); [8]): 0.0
Preemergence herbicidal rating AMBEL (AMBEL (Ragweed, Common); [9]): 0.0
Preemergence herbicidal rating AMBEL (AMBEL (Ragweed, Common); [10]): 4.0
Preemergence herbicidal rating GALAP (GALAP (Galium); [6]): 0.0
Preemergence herbicidal rating GALAP (GALAP (Galium); [7]): 0.0
Preemergence herbicidal rating GALAP (GALAP (Galium); [8]): 0.0
Preemergence herbicidal rating GALAP (GALAP (Galium); [9]): 0.0
Preemergence herbicidal rating GALAP (GALAP (Galium); [10]): 0.0
Preemergence herbicidal rating SETVI (SETVI (Foxtail, Green) [5]; [6]): 0.0
Preemergence herbicidal rating SETVI (SETVI (Foxtail, Green) [5]; [7]): 0.0
Preemergence herbicidal rating SETVI (SETVI (Foxtail, Green) [5]; [8]): 0.0
Preemergence herbicidal rating SETVI (SETVI (Foxtail, Green) [5]; [9]): 0.0
Preemergence herbicidal rating SETVI (SETVI (Foxtail, Green) [5]; [10]): 4.0
herbicidal effect rating, CYPIR (CYPIR (Rice Flatsedge); 0.0313 kg/ha): 4.0
herbicidal effect rating, CYPIR (CYPIR (Rice Flatsedge); 0.0625 kg/ha): 5.0
herbicidal effect rating, CYPIR (CYPIR (Rice Flatsedge); 0.1250 kg/ha): 6.0
herbicidal effect rating, CYPIR (CYPIR (Rice Flatsedge); 0.2500 kg/ha): 6.0
